Bridge positions count the residues as written; N and C are the ends. Peptide text beside a SMILES is read from it.
Tests used:
Assay type in all cases: binding
[1] = target: T1, fibrin (Homo sapiens, UniProt P02671+P02675+P02679); assay: dried fibrin plate ELISA of phage isolates; conditions: phage isolates from TN7 library; symbols not defined
T1 construct: Thrombin cleavage at the Arg16-Arg17 bond in the Ax chains and at the Arg14-Gly15 bond on the BP chains releases fibrinopeptides A and B; host or cells: fibrinogen solution clotted with thrombin in 96-well plates and dried at 37 C
T1 sequence (P02671 36-629 limits assumed): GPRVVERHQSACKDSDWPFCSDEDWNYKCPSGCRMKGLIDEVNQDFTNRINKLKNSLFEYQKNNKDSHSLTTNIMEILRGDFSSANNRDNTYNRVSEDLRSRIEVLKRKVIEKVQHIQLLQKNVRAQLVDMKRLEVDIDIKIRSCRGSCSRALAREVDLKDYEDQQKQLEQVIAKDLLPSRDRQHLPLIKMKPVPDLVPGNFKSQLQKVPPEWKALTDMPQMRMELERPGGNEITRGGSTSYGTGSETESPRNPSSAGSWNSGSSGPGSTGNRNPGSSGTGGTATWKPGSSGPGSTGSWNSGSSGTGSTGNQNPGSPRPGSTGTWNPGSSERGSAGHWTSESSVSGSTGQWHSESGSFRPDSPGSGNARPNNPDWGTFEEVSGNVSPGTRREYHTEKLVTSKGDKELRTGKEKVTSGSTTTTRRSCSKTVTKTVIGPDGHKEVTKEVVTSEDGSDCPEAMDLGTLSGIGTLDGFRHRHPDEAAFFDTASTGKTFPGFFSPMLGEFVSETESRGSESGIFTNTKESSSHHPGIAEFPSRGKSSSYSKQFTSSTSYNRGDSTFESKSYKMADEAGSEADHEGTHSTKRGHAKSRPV
T1 sequence (P02675 45-491 limits assumed): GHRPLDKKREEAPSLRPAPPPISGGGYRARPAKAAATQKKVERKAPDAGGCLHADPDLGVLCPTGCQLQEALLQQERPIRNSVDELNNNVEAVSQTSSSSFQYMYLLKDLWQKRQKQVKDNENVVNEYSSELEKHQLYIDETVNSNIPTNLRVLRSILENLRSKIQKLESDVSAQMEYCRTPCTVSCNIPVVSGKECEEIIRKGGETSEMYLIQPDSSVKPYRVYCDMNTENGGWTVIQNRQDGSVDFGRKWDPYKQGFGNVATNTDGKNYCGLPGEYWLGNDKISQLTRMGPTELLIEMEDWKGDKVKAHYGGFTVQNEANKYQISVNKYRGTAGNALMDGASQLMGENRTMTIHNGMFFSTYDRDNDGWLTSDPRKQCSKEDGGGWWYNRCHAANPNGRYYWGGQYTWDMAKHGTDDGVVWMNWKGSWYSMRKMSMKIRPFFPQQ
T1 sequence (P02679 27-437 isoform P02679-2 limits assumed): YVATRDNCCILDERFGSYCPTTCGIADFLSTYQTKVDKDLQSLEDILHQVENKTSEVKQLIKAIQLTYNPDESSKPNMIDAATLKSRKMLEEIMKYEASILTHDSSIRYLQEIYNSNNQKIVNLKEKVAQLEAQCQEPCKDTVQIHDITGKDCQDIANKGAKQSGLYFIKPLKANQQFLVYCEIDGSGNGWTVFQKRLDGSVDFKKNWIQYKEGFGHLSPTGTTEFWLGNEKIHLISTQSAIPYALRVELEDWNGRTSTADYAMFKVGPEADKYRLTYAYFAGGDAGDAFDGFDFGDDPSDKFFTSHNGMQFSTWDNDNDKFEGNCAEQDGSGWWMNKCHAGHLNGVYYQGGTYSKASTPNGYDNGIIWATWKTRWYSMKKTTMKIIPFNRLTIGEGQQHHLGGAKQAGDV
Procedure: For screening libraries to isolate binding moieties for fibrin, two fibrin targets, i.e., synthetic fibrin clots and then a soluble fibrin fragment, DD(E), were prepared. To prepare fibrin for screening, dilute fibrin clots were formed in the wells of a 96-well plate, dried down to a thin layer, and then rehydrated prior to library screening. In a typical procedure, a 0.15 mg/ml fibrinogen solution was prepared in TBS buffer (50 mM Tris, 150 mM NaCl, pH 7.4). A solution containing 2 U/ml thrombin, 10 mM CaCl2, and 5 mM ε-aminocaproic acid in TBS was prepared. The fibrinogen solution and thrombin solution were mixed 1:1 in the wells of a 96-well plate, aliquoting 25 μL of each solution in each well (total volume=50 μL). The plates were evaporated to dryness by incubating them at 37° C. overnight. Just before a phage library was added to the dried fibrin target, the fibrin wells were washed three times for 10 minutes with phage blocking buffer (TBS containing 2 mM CaCl2, 0.1% Tween-20, and 0.1% human serum albumin (HSA)).
After five rounds of selection, the eluted phage were propagated and a portion plated to isolate phage plaques arising from individual clones. Ninety such clones were selected randomly, propagated, and tested individually for binding to fibrin in a dried fibrin plate assay. Dried fibrin plates were prepared as described above for the library screening. Phage samples (˜10^9 phage each) were incubated in the dried fibrin plate wells in binding buffer (50 mM Tris, 150 mM NaCl, 2 mM CaCl2, 0.05% Tween-20) containing 0.1% HSA. After 1 hour, the plates were washed 5 times with binding buffer. Anti-M13 antibody conjugated to horseradish peroxidase (Pharmacia) was added at 1/5000 dilution in binding buffer to the wells and incubated with the fibrin for 1 hour. The wells were again washed 5 times with binding buffer and the presence of the antibody/phage/fibrin complex was measured with HRP calorimetric reagents (3,3′,5,5′-tetrarnethylbenzidine (TMB) and H2O2). A high absorbance at 595 nm (due to oxidized TMB) was indicative of a tight phage/fibrin interaction, and phage clones corresponding to those wells were identified as bearing fibrin-binding moieties.
The amino acid sequence data from these phage isolates were sorted according to the degree of similarity and response in the fibrin ELISA assay.

[2] = target: T2, dried fibrin (Homo sapiens, UniProt P02671+P02675+P02679); assay: dissociation constant against dried fibrin (free peptide by mass spectrometry)
T2 construct: Thrombin cleavage at the Arg16-Arg17 bond in the Ax chains and at the Arg14-Gly15 bond on the BP chains releases fibrinopeptides A and B; host or cells: fibrinogen solution clotted with thrombin in 96-well plates and dried at 37 C
T2 sequence (P02671 36-629 limits assumed): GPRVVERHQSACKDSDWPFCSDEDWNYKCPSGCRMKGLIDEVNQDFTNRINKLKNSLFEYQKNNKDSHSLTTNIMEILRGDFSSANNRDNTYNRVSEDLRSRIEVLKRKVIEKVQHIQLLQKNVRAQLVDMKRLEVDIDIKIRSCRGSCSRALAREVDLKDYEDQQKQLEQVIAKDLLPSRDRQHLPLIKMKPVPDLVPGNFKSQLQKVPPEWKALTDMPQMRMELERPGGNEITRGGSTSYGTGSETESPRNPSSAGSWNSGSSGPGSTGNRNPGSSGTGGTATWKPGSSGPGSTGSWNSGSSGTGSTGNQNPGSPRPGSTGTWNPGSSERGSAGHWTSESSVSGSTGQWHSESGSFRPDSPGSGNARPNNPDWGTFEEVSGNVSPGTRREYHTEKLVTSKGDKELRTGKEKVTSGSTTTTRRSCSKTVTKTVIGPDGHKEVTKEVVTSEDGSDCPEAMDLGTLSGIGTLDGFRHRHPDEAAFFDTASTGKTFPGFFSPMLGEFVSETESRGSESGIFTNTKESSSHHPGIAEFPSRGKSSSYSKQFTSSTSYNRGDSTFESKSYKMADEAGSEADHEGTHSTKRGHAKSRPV
T2 sequence (P02675 45-491 limits assumed): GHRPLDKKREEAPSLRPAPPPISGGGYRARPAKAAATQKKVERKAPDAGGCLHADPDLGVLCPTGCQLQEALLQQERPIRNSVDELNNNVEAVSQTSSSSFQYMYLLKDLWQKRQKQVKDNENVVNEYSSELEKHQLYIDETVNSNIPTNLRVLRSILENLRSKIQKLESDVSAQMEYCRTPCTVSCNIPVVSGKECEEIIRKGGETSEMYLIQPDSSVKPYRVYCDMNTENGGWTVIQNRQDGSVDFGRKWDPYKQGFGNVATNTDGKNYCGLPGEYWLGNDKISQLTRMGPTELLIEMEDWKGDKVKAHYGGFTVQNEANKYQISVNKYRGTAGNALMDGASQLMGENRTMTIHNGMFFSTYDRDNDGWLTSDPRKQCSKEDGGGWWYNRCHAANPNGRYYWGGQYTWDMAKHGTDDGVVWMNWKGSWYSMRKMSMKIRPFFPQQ
T2 sequence (P02679 27-437 isoform P02679-2 limits assumed): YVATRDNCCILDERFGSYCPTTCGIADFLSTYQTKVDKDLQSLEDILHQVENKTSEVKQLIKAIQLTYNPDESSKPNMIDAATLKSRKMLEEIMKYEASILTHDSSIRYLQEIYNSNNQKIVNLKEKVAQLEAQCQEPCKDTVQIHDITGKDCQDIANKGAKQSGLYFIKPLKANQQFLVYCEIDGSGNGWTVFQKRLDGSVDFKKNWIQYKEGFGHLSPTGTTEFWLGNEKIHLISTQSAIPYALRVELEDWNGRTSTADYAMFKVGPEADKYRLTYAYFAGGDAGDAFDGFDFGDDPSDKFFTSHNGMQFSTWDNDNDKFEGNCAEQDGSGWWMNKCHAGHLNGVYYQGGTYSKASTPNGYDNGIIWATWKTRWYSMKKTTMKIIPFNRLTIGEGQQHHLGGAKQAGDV
Procedure: A fibrinogen solution was prepared at 10 mg/ml (or at twice the concentration of fibrin desired) in TBS buffer (50 mM Tris, 150 mM NaCl, pH 7.4). The fibrinogen solution typically contained ˜17 mM citrate. Subsequently, a solution was prepared containing 2 U/ml thrombin, 20 mM CaCl2, and 5 mM ε-aminocaproic acid in TBS. The fibrinogen solution and thrombin solution were mixed 1:1 in the wells of a 96-well plate, aliquoting 50 μL of each solution in each well (total volume=100 μL). The plates were evaporated to dryness overnight at 37° C. The polypeptide to be tested, dissolved in water, was added to each well at concentrations between 1-200 μM. A typical binding assay contained 24 points at concentrations of 2, 4, 6, 8, 10, 12, 14, 17, 20, 23, 26, 30, 35, 40, 45, 50, 60, 70, 80, 100, 125, 150, 175, and 200 μM. The plate containing the peptide and (rehydrated) dried fibrin was covered and incubated at 37° C. on a shaker table for 2 hours.
The supernatant in each well was removed by pipette and the concentration of the polypeptide was measured by mass spectrometry. The ion current detected at the mass of the peptide was monitored after injection of a sample into the mass spectrometer. The area-under-the-peak was quantitated and compared to standards of known concentration. The concentration of peptide in the supernatant is equal to the concentration of free peptide. The concentration of bound peptide was determined by subtracting the concentration of free peptide from the total (starting) concentration. A plot of [Bound Peptide] vs. [Free Peptide] was used to determine the Kd and the concentration of bound peptide at saturation. The curve was fit to the equation: [Bound]=N×[Free]/(Kd+[Free]) where [Bound] is the concentration of bound polypeptide, [Free] is the concentration of free polypeptide, Kd is the dissociation constant (equal to the reciprocal of Ka) and N is the concentration of binding sites. The number of binding sites per fibrin molecule was equal to the lo concentration of binding sites determined by the [Bound Polypeptide] vs. [Free Polypeptide] plot, divided by the concentration of fibrin (15 μM) used in the assay.

[3] = target: T3, DD(E) (Homo sapiens, UniProt P02671+P02675+P02679); assay: dissociation constant against fibrin-derived polypeptide DD(E); conditions: read-out: Kd DD(E)
T3 construct: host or cells: purchased fibrinogen clotted with thrombin, digested with plasmin, then purified by ammonium sulfate cuts and Sephacryl S200
Procedure: The soluble fibrin-derived polypeptide DD(E) was prepared following a modification of a published method (Moskoitz and Budzynksi, Biochemistry, 33: 12937-12944 (1994) and references therein). Fibrinogen containing a Factor XIII trace impurity (1 g, Grade L; purchased from American Diagnostica) was dissolved in TBS buffer and dialyzed overnight against TBS containing 5 mM citrate. The fibrinogen concentration was adjusted to 3.0 mg/ml and CaCl2 was added to a concentration of 10 mM. Clotting of the fibrinogen was initiated by the addition of thrombin to 0.5 U/ml and the clot was incubated for 3 hours at 37° C. The clot was cut up with a spatula to release water and to concentrate the clot. The clot pieces were washed twice with TBS.Ca buffer (TBS containing 2 mM CaCl2) and were centrifuged at 4,000×g to compact the clots between washes. The clot material was resuspended in 250 ml TBS containing 25 mM CaCl2 and 2 K.I.U. plasmin per mg fibrin. The clots were digested overnight at 20° C. Undigested clot was removed by pipette, and the supernatant was shaken with 10 ml of Lysine Sepharose (Pharmacia) for 30 minutes and filtered to remove the resin. Aprotinin was added to the filtrate to a concentration of 500 U/μL. Ammonium Sulfate was added to 30% saturation and the precipitated protein was removed by centrifugation. More ammonium sulfate was added to the supernatant to a final concentration of 50% saturation, and the precipitated protein was concentrated by centrifugation. The pellets, containing DD(E), were resuspended in a small volume of buffer (50 mM Tris, 150 mM NaCl, 2 mM CaCl2) (<10 ml) and chromatographed on a Sephacryl S200 (Pharmacia) size exclusion column (5×100 cm) in the same buffer. Fractions of protein eluted from the column were assayed by SDS-PAGE for DD(E). DD(E) contains subunits of 55 kD (Fragment E) and 190 kD (Fragment DD). […]
Dissociation constants were determined against DD(E) as described above.

| Kd [2] | Kd [3] | Compound | relative binding [1] |
| --- | --- | --- | --- |
|  |  | 8 (RPCDYYGTCFD; synthetic fibrin binding peptide) [compound 8] | + + + |
|  |  | 9 (LPCDYYGTCLD; synthetic fibrin binding peptide) [compound 9] | + + + |
| > 100 µM | > 100 µM | CC(C)C[C@H](NC(=O)[C@@H]1CSSC[C@H](NC(=O)[C@@H]2CCCN2C(=O)[C@@H](N)CC(C)C)C(=O)N[C@@H](CC(=O)O)C(=O)N[C@@H](Cc2ccc(O)cc2)C(=O)N[C@@H](Cc2ccc(O)cc2)C(=O)NCC(=O)N[C@@H](C)C(=O)N1)C(=O)N[C@@H](CC(=O)O)C(N)=O [SEQ ID NO: 46, LPCDYYGACLD] (H-LPCDYYGACLD-NH2; disulfide 3-9) |  |
| 2.7 µM | 2.6 µM | CC(C)CC(N)C(=O)N1CCCC1C(=O)NC1CSSCC(C(=O)NC(CC(C)C)C(=O)NC(CC(=O)O)C(N)=O)NC(=O)C(C(C)O)NC(=O)CNC(=O)C(Cc2ccc(O)cc2)NC(=O)C(Cc2ccc(O)cc2)NC(=O)C(CC(=O)O)NC1=O (stereo not shown) [SEQ ID NO: 9, LPCDYYGTCLD] |  |
|  |  | 6 (HDCQYYGTCLH; synthetic fibrin binding peptide) [compound 6] | + + + |
|  |  | 7 (FACHYYGTCLH; synthetic fibrin binding peptide) [compound 7] | + + + |
| 23 µM | 5.9 µM | CC(C)C[C@H](NC(=O)[C@@H]1CSSC[C@H](NC(=O)[C@@H]2CCCN2C(=O)[C@@H](N)CC(C)C)C(=O)N[C@@H](C)C(=O)N[C@@H](Cc2ccc(O)cc2)C(=O)N[C@@H](Cc2ccc(O)cc2)C(=O)NCC(=O)N[C@@H]([C@@H](C)O)C(=O)N1)C(=O)N[C@@H](CC(=O)O)C(N)=O [SEQ ID NO: 42, LPCAYYGTCLD] (H-LPCAYYGTCLD-NH2; disulfide 3-9) |  |
